# Source: patent US20190382396A1, “SALTS OF BICYCLO[1.1.1]PENTANE INHIBITORS OF DUAL LEUCINE ZIPPER (DLK) KINASE FOR THE TREATMENT OF DISEASE” (Board of Regents, The University of Texas System, priority 2018, published 2019)
# Like-named read-outs stand apart in the source and are kept apart here.
# Assays:
# Format in all cases: physicochemical
# [1] = Solubility in physiologically relevant solutions (SGF, FaSSIF, FeSSIF); settings: 25±0.5° C.; for solubility at 24 h: 25 °C, thermodynamic from solid
# Protocol: Solubility of the free base 1 and the selected salts 8, 9, 10, and 11 in physiologically relevant solutions were examined. For each material, aliquots were added to 2 ml vials containing 500 uL of either SGF, FaSSIF, or FeSSIF, which were then sealed. The mixtures were kept shaking by thermomixer at 700 rpm, 25±0.5° C. for 24 h to facilitate the dissolution and then centrifuged by 96-well plates at 3000 rpm for 2 min. The filter liquors were diluted with diluents (ACN/water, 50/50) and analyzed by HPLC.
# [2] = Stability (50° C., 40° C./75% RH, light; 1 week); settings: for XRPD change? / purity: bulk, 1 week; for initial purity: initial (before storage)
# Protocol: The stability of the free base 1 and the selected salts 8, 9, 10, and 11 was evaluated. For each material, aliquots were set up at each of conditions (50° C., 40° C./75% RH, light) at given time points (initial and 1 week). PXRD diffractograms of the hydrogen fumarate salt 11 is shown in FIG. 17, with trace (a) showing the initial salt, trace (b) showing the salt after light treatment, trace (c) showing the salt after storage at 40° C. and 75% relative humidity for 1 week, and (d) showing the salt after storage at 50° C. for 1 week.
# [3] = Dynamic vapor sorption (DVS), hygroscopicity; settings: for Maximum sorption / Hygroscopicity (0-40% RH) / Hygroscopicity (0-90% RH) / Change in mass, Desorption / Change in mass, Sorption / Change in mass, Hysteresis: DVS; for Maximum sorption / Hygroscopicity (0-40% RH) / Hygroscopicity (0-90% RH): 25° C.; for Hygroscopicity; form change: form change after DVS
# Protocol: Dynamic vapor sorption (“DVS”) was performed at 25° C., using approx 10-15 mg of sample and N2 gas at a flow rate of 200 mL/min, dm/dt=0.01% min, minimum dm/dt stability duration of 10 min, max equilibration time of 180 min, drying at 0% RH for 120 min, scanning from 0% RH to 90% RH to 0% RH with a step size of 10% RH.
# Total cycling time varied, but in all cases was about 200-250 min.
# [4] = simulated gastric fluid, SGF, read-out: Solubility SGF Conc
# [5] = FaSSIF, read-out: Solubility FaSSIF Conc
# [6] = FeSSIF, read-out: Solubility FeSSIF Conc
compound,measurement,setting,value
"CC(C)c1nc(-c2cnc(N)c(OC(F)(F)F)c2)cn1C12CC(N3CCOCC3)(C1)C2.O=C(O)CCC(=O)O [Example 10, 5-(2-isopropyl-1-(3-morpholinobicyclo[1.1.1]pentan-1-yl)-1H-imidazol-4-yl)-3-(trifluoromethoxy)pyridin-2-amine hydrogen succinate]",solubility at 24 h,[1]; [4],7080 µg/mL
same,solubility at 24 h,[1]; [5],72.2 µg/mL
same,solubility at 24 h,[1]; [6],642 µg/mL
same,FaSSIF pH after 24 h,[1]; FaSSIF,5.92
same,FeSSIF pH after 24 h,[1]; FeSSIF,4.88
same,SGF pH after 24 h,[1]; SGF,3.71
same,XRPD change?,"[2]; 40° C., 75% RH",no
same,purity,"[2]; 40° C., 75% RH",100%
same,XRPD change?,[2]; 50° C.,no
same,purity,[2]; 50° C.,100%
same,initial purity,[2],99.74%
same,XRPD change?,[2]; light,no (2)
same,purity,[2]; light,99.74%
same,Maximum sorption,[3],0.30%
same,Hygroscopicity (0-40% RH),[3],0.05%
same,Hygroscopicity (0-90% RH),[3],0.3%
same,"Change in mass, Desorption",[3]; Target % P/P0 0.0,0.0514%
same,"Change in mass, Sorption",[3]; Target % P/P0 0.0,0.0000%
same,"Change in mass, Desorption",[3]; Target % P/P0 10.0,0.0647%
same,"Change in mass, Hysteresis",[3]; Target % P/P0 10.0,0.0496%
same,"Change in mass, Sorption",[3]; Target % P/P0 10.0,0.0151%
same,"Change in mass, Desorption",[3]; Target % P/P0 20.0,0.0727%
same,"Change in mass, Hysteresis",[3]; Target % P/P0 20.0,0.0487%
same,"Change in mass, Sorption",[3]; Target % P/P0 20.0,0.0239%
same,"Change in mass, Desorption",[3]; Target % P/P0 30.0,0.0930%
same,"Change in mass, Hysteresis",[3]; Target % P/P0 30.0,0.0611%
same,"Change in mass, Sorption",[3]; Target % P/P0 30.0,0.0319%
same,"Change in mass, Desorption",[3]; Target % P/P0 40.0,0.1081%
same,"Change in mass, Hysteresis",[3]; Target % P/P0 40.0,0.0549%
same,"Change in mass, Sorption",[3]; Target % P/P0 40.0,0.0532%
same,"Change in mass, Desorption",[3]; Target % P/P0 50.0,0.1267%
same,"Change in mass, Hysteresis",[3]; Target % P/P0 50.0,0.0541%
same,"Change in mass, Sorption",[3]; Target % P/P0 50.0,0.0727%
same,"Change in mass, Desorption",[3]; Target % P/P0 60.0,0.1489%
same,"Change in mass, Hysteresis",[3]; Target % P/P0 60.0,0.0514%
same,"Change in mass, Sorption",[3]; Target % P/P0 60.0,0.0975%
same,"Change in mass, Desorption",[3]; Target % P/P0 70.0,0.1790%
same,"Change in mass, Hysteresis",[3]; Target % P/P0 70.0,0.0523%
same,"Change in mass, Sorption",[3]; Target % P/P0 70.0,0.1267%
same,"Change in mass, Desorption",[3]; Target % P/P0 80.0,0.2233%
same,"Change in mass, Hysteresis",[3]; Target % P/P0 80.0,0.0292%
same,"Change in mass, Sorption",[3]; Target % P/P0 80.0,0.1941%
same,"Change in mass, Desorption",[3]; Target % P/P0 90.0,0.3013%
same,"Change in mass, Sorption",[3]; Target % P/P0 90.0,0.3013%
same,Hygroscopicity; form change,[3],no change
"CC(C)c1nc(-c2cnc(N)c(OC(F)(F)F)c2)cn1C12CC(N3CCOCC3)(C1)C2.O=C(O)/C=C\C(=O)O [Example 9, 5-(2-isopropyl-1-(3-morpholinobicyclo[1.1.1]pentan-1-yl)-1H-imidazol-4-yl)-3-(trifluoromethoxy)pyridin-2-amine hydrogen maleate]",solubility at 24 h,[1]; [4],13400 µg/mL
same,solubility at 24 h,[1]; [5],113 µg/mL
same,solubility at 24 h,[1]; [6],565 µg/mL
same,FaSSIF pH after 24 h,[1]; FaSSIF,5.65
same,FeSSIF pH after 24 h,[1]; FeSSIF,4.90
same,SGF pH after 24 h,[1]; SGF,3.26
same,XRPD change?,"[2]; 40° C., 75% RH",no
same,purity,"[2]; 40° C., 75% RH",99.87%
same,XRPD change?,[2]; 50° C.,no
same,purity,[2]; 50° C.,99.89%
same,initial purity,[2],99.83%
same,XRPD change?,[2]; light,no
same,purity,[2]; light,99.79%
same,Maximum sorption,[3],0.27%
same,Hygroscopicity (0-40% RH),[3],0.07%
same,Hygroscopicity (0-90% RH),[3],0.27%
same,"Change in mass, Desorption",[3]; Target % P/P0 0.0,−0.0030%
same,"Change in mass, Sorption",[3]; Target % P/P0 0.0,0.0000%
same,"Change in mass, Desorption",[3]; Target % P/P0 10.0,0.0196%
same,"Change in mass, Hysteresis",[3]; Target % P/P0 10.0,0.0015%
same,"Change in mass, Sorption",[3]; Target % P/P0 10.0,0.0181%
same,"Change in mass, Desorption",[3]; Target % P/P0 20.0,0.0354%
same,"Change in mass, Hysteresis",[3]; Target % P/P0 20.0,0.0038%
same,"Change in mass, Sorption",[3]; Target % P/P0 20.0,0.0317%
same,"Change in mass, Desorption",[3]; Target % P/P0 30.0,0.0573%
same,"Change in mass, Hysteresis",[3]; Target % P/P0 30.0,0.0151%
same,"Change in mass, Sorption",[3]; Target % P/P0 30.0,0.0422%
same,"Change in mass, Desorption",[3]; Target % P/P0 40.0,0.0747%
same,"Change in mass, Hysteresis",[3]; Target % P/P0 40.0,0.0090%
same,"Change in mass, Sorption",[3]; Target % P/P0 40.0,0.0656%
same,"Change in mass, Desorption",[3]; Target % P/P0 50.0,0.0950%
same,"Change in mass, Hysteresis",[3]; Target % P/P0 50.0,0.0136%
same,"Change in mass, Sorption",[3]; Target % P/P0 50.0,0.0814%
same,"Change in mass, Desorption",[3]; Target % P/P0 60.0,0.1199%
same,"Change in mass, Hysteresis",[3]; Target % P/P0 60.0,0.0158%
same,"Change in mass, Sorption",[3]; Target % P/P0 60.0,0.1041%
same,"Change in mass, Desorption",[3]; Target % P/P0 70.0,0.1516%
same,"Change in mass, Hysteresis",[3]; Target % P/P0 70.0,0.0189%
same,"Change in mass, Sorption",[3]; Target % P/P0 70.0,0.1327%
same,"Change in mass, Desorption",[3]; Target % P/P0 80.0,0.1938%
same,"Change in mass, Hysteresis",[3]; Target % P/P0 80.0,0.0151%
same,"Change in mass, Sorption",[3]; Target % P/P0 80.0,0.1787%
same,"Change in mass, Desorption",[3]; Target % P/P0 90.0,0.2655%
same,"Change in mass, Sorption",[3]; Target % P/P0 90.0,0.2655%
same,Hygroscopicity; form change,[3],no change
"CC(C)c1nc(-c2cnc(N)c(OC(F)(F)F)c2)cn1C12CC(N3CCOCC3)(C1)C2.O=C(O)CC(O)(CC(=O)O)C(=O)O [Example 8, 5-(2-isopropyl-1-(3-morpholinobicyclo[1.1.1]pentan-1-yl)-1H-imidazol-4-yl)-3-(trifluoromethoxy)pyridin-2-amine dihydrogen citrate]",solubility at 24 h,[1]; [4],6330 µg/mL
same,solubility at 24 h,[1]; [5],113 µg/mL
same,solubility at 24 h,[1]; [6],773 µg/mL
same,FaSSIF pH after 24 h,[1]; FaSSIF,5.53
same,FeSSIF pH after 24 h,[1]; FeSSIF,4.86
same,SGF pH after 24 h,[1]; SGF,3.26
same,XRPD change?,"[2]; 40° C., 75% RH",no
same,purity,"[2]; 40° C., 75% RH",99.41%
same,XRPD change?,[2]; 50° C.,no
same,purity,[2]; 50° C.,98.91%
same,initial purity,[2],99.58%
same,XRPD change?,[2]; light,no
same,purity,[2]; light,99.44%
same,Maximum sorption,[3],0.60%
same,Hygroscopicity (0-40% RH),[3],0.17%
same,Hygroscopicity (0-90% RH),[3],0.6%
same,"Change in mass, Desorption",[3]; Target % P/P0 0.0,0.0373%
same,"Change in mass, Sorption",[3]; Target % P/P0 0.0,0.0000%
same,"Change in mass, Desorption",[3]; Target % P/P0 10.0,0.0913%
same,"Change in mass, Hysteresis",[3]; Target % P/P0 10.0,0.0426%
same,"Change in mass, Sorption",[3]; Target % P/P0 10.0,0.0487%
same,"Change in mass, Desorption",[3]; Target % P/P0 20.0,0.1293%
same,"Change in mass, Hysteresis",[3]; Target % P/P0 20.0,0.0411%
same,"Change in mass, Sorption",[3]; Target % P/P0 20.0,0.0882%
same,"Change in mass, Desorption",[3]; Target % P/P0 30.0,0.1757%
same,"Change in mass, Hysteresis",[3]; Target % P/P0 30.0,0.0502%
same,"Change in mass, Sorption",[3]; Target % P/P0 30.0,0.1255%
same,"Change in mass, Desorption",[3]; Target % P/P0 40.0,0.2145%
same,"Change in mass, Hysteresis",[3]; Target % P/P0 40.0,0.0418%
same,"Change in mass, Sorption",[3]; Target % P/P0 40.0,0.1727%
same,"Change in mass, Desorption",[3]; Target % P/P0 50.0,0.2609%
same,"Change in mass, Hysteresis",[3]; Target % P/P0 50.0,0.0418%
same,"Change in mass, Sorption",[3]; Target % P/P0 50.0,0.2191%
same,"Change in mass, Desorption",[3]; Target % P/P0 60.0,0.3119%
same,"Change in mass, Hysteresis",[3]; Target % P/P0 60.0,0.0388%
same,"Change in mass, Sorption",[3]; Target % P/P0 60.0,0.2731%
same,"Change in mass, Desorption",[3]; Target % P/P0 70.0,0.3743%
same,"Change in mass, Hysteresis",[3]; Target % P/P0 70.0,0.0320%
same,"Change in mass, Sorption",[3]; Target % P/P0 70.0,0.3423%
same,"Change in mass, Desorption",[3]; Target % P/P0 80.0,0.4565%
same,"Change in mass, Hysteresis",[3]; Target % P/P0 80.0,0.0228%
same,"Change in mass, Sorption",[3]; Target % P/P0 80.0,0.4336%
same,"Change in mass, Desorption",[3]; Target % P/P0 90.0,0.6040%
same,"Change in mass, Sorption",[3]; Target % P/P0 90.0,0.6040%
same,Hygroscopicity; form change,[3],no change
